Values quoted from earlier work in paper PMC6413085, “A Validated HPLC-MS/MS Assay for 14-O-[(4,6-Diaminopyrimidine-2-yl)thioacetyl] Mutilin in Biological Samples and Its Pharmacokinetic, Distribution and Excretion via Urine and Feces in Rats” (Molecules, 2019).
Read-outs that look alike come from different tables or passages of the source.

Tests used:
[1] = rabbit, in vivo, iv, 25 mg/kg; cited from earlier work
[2] = rat, in vivo, cited from earlier work; for time at which Cmax was achieved: 5 mg/kg
[3] = in vivo; cited from earlier work

Row | SMILES | time at which Cmax was achieved [1] [h] | absolute bioavailability following oral administration ([2]; po) [%] | absolute bioavailability following oral administration [3] [%] | time at which Cmax was achieved ([2]; iv) [h] | time at which Cmax was achieved ([2]; po) [h]
1 | C=CC1(C)CC(OC(=O)CSc2nc(N)cc(O)n2)C2(C)C(C)CCC3(CCC(=O)C32)C(C)C1O (stereo not drawn) [14-O-[(4-amino-6-hydroxy-pyrimidine-2-yl)thioacetyl] mutilin] | 0.08 |  |  |  | 
2 | C=C[C@]1(C)C[C@@H](OC(=O)CSC(C)(C)CNC(=O)[C@H](N)C(C)C)[C@]2(C)[C@H](C)CC[C@]3(CCC(=O)[C@H]32)[C@@H](C)[C@@H]1O [valnemulin] |  | 100 | 36.68 |  | 
3 | C=C[C@]1(C)C[C@@H](OC(=O)CSc2nnc(N)s2)[C@]2(C)[C@H](C)CC[C@]3(CCC(=O)[C@H]32)[C@@H](C)[C@@H]1O [14-O-[(2-amino-1,3,4-thiadiazole-5-yl)thioacetyl] mutilin] |  | 35.81 |  | 0.08 | 0.75
